Data as given in PubChem BioAssay (NCI).
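Test compounds were applied to cells in 96-well plates for 48 hours at 5 doses. Abbreviation: GI50, concentration required for 50% inhibition of growth. Definition used: TGI = concentration required for complete inhibition of growth.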

How the values were obtained:
Assay in all cases: NCI tumour cell line growth inhibition, 48 h
MCF7 breast = system: MCF7 breast
ACHN renal = system: ACHN renal
K-562 leukemia = system: K-562 leukemia
EKVX NSCLC = system: EKVX NSCLC
RXF 393 renal = system: RXF 393 renal
DU-145 prostate = system: DU-145 prostate
MALME-3M melanoma = system: MALME-3M melanoma
SN12C renal = system: SN12C renal
HCT-116 colon = system: HCT-116 colon
SK-MEL-28 melanoma = system: SK-MEL-28 melanoma
NCI-H460 lung = system: NCI-H460 lung
PC-3 prostate = system: PC-3 prostate
HCT-15 colon = system: HCT-15 colon
MDA-MB-231 breast = system: MDA-MB-231 breast
SK-OV-3 ovarian = system: SK-OV-3 ovarian
SW-620 colon = system: SW-620 colon
OVCAR-3 ovarian = system: OVCAR-3 ovarian
HT29 colon = system: HT29 colon
SF-268 CNS = system: SF-268 CNS
SK-MEL-2 melanoma = system: SK-MEL-2 melanoma
SNB-19 CNS = system: SNB-19 CNS
T-47D breast = system: T-47D breast
IGROV1 ovarian = system: IGROV1 ovarian
U251 CNS = system: U251 CNS
LOX IMVI melanoma = system: LOX IMVI melanoma
KM12 colon = system: KM12 colon
UO-31 renal = system: UO-31 renal
NCI/ADR-RES ovarian = system: NCI/ADR-RES ovarian
HCC-2998 colon = system: HCC-2998 colon

CC(=O)O[C@@H]1C(=O)N(c2cnccn2)[C@H]1c1ccccc1[N+](=O)[O-]
TGI (MCF7 breast): > 64200 nM | GI50 (ACHN renal): 596 nM | TGI (ACHN renal): 17400 nM | GI50 (K-562 leukemia): 341 nM | TGI (K-562 leukemia): > 100000 nM | GI50 (EKVX NSCLC): 518 nM | TGI (EKVX NSCLC): > 100000 nM | GI50 (RXF 393 renal): 520 nM | TGI (RXF 393 renal): 3560 nM | GI50 (DU-145 prostate): 512 nM | TGI (DU-145 prostate): > 100000 nM | GI50 (MALME-3M melanoma): 526 nM | TGI (MALME-3M melanoma): 40900 nM | GI50 (SN12C renal): 432 nM | TGI (SN12C renal): 13800 nM | GI50 (HCT-116 colon): 330 nM | TGI (HCT-116 colon): 6770 nM | GI50 (SK-MEL-28 melanoma): 926 nM | TGI (SK-MEL-28 melanoma): 27400 nM | GI50 (NCI-H460 lung): 346 nM | TGI (NCI-H460 lung): 10800 nM | GI50 (PC-3 prostate): 582 nM | TGI (PC-3 prostate): 25700 nM | GI50 (HCT-15 colon): 421 nM | TGI (HCT-15 colon): 14500 nM | GI50 (MDA-MB-231 breast): 351 nM | TGI (MDA-MB-231 breast): 4850 nM | GI50 (SK-OV-3 ovarian): 781 nM | TGI (SK-OV-3 ovarian): > 100000 nM | GI50 (SW-620 colon): 396 nM | TGI (SW-620 colon): 19300 nM | GI50 (OVCAR-3 ovarian): 288 nM | TGI (OVCAR-3 ovarian): 3300 nM | GI50 (HT29 colon): 2540 nM | TGI (HT29 colon): 6610 nM | GI50 (SF-268 CNS): 566 nM | TGI (SF-268 CNS): > 69500 nM | GI50 (SK-MEL-2 melanoma): 1960 nM | TGI (SK-MEL-2 melanoma): > 100000 nM | GI50 (SNB-19 CNS): 1860 nM | TGI (SNB-19 CNS): > 100000 nM | GI50 (T-47D breast): 18500 nM | TGI (T-47D breast): > 100000 nM | GI50 (IGROV1 ovarian): 529 nM | TGI (IGROV1 ovarian): 19000 nM | GI50 (U251 CNS): 366 nM | TGI (U251 CNS): 10600 nM | GI50 (LOX IMVI melanoma): 283 nM | TGI (LOX IMVI melanoma): 1690 nM | GI50 (KM12 colon): 362 nM | TGI (KM12 colon): 19400 nM | GI50 (UO-31 renal): 616 nM | TGI (UO-31 renal): 16300 nM | GI50 (NCI/ADR-RES ovarian): 311 nM | TGI (NCI/ADR-RES ovarian): 7510 nM | GI50 (HCC-2998 colon): 2100 nM | TGI (HCC-2998 colon): 10500 nM
